Source: patent US8258309B2, “Azapeptide derivatives” (priority 2007, dated 2012)
Like-named read-outs stand apart in the source and are kept apart here.

How the values were obtained:
[1] = Microsomal assay: stability in human liver microsomes; type: in vitro ADME; conditions: for half-life at 1 μM: liver microsomes; for half-life as compared to atazanavir: human liver microsomes, first run
Method: Microsomal Assay. Human liver microsomes (20 mg/mL, pool of 50 individuals) were obtained from Xenotech LLC (Lenexa, Kans.). The incubation mixtures are prepared as follows. Stock solutions (10 mM) solutions of test Compounds 103, 106, 122 and of atazanavir were prepared in DMSO. The 10 mM stock solutions were diluted to 1 mM in acetonitrile (ACN). […] The microsome-test compound mixtures were added to wells of a 2 mL 96-well deep well polypropylene plate in triplicate. The plate was warmed to 37° C. before initiating the reactions by addition of prewarmed NADPH in 0.1 M potassium phosphate buffer, pH 7.4, containing 3 mM MgCl2. The final reaction mixture composition contained: • Liver Microsomes 0.5 mg/mL • NADPH 2 mM • Potassium Phosphate, pH 7.4 100 mM • Magnesium Chloride 3 mM • Test Compound 1.0 μM. The reaction mixtures were incubated at 37° C. and 50 μL aliquots were removed at 0, 3, 7, 12, 20, and 30 minutes and added to shallow-well 96-well plates which contained 50 μL of ice-cold ACN with internal standard to stop the reactions. The plates were stored at −20° C. for 30 minutes, after which 100 μL of water was added to the wells of the plate before centrifugation to pellet precipitated proteins. Supernatants were transferred to another 96-well plate and analyzed for amounts of parent remaining by LC-MS/MS using an Applied Biosystems API 4000 mass spectrometer. […] Data analysis was performed using Microsoft Excel Software. […] The results are shown in FIGS. 2 and 3 and in Table 3, below: […]

[2] = system: HIV-1RF; test: HIV anti-viral activity in CEM-SS cells infected with HIV-1 (XTT); type: cell-based
Method: The HIV antiviral activity of compound of the present invention was tested in CEM-SS cells infected with HIV-1. CEM-SS cells were passaged in T-75 flasks in RPMI 1640 medium supplemented with 10% heat inactivated fetal bovine serum, 2 mmol/L L-glutamine, 100 U/mL penicillin and 100 flg/mL streptomycin prior to use in the antiviral assay. On the day preceding the assay, the cells were split 1:2 to assure they were in an exponential growth phase at the time of infection. Total cell and viability quantification was performed using a hemocytometer and Trypan Blue dye exclusion. Cell viability was greater than 95% for the cells to be utilized in the assay. The cells were resuspended at 5×10^4 cells per mL in tissue culture medium and added to the drug-containing microtiter plates in a volume of 50 μL.
The virus used for the assay was the lymphocyte-tropic virus strain HIV-IRF. The virus was obtained from the NIH AIDS Research and Reference Reagent Program and stock virus pools were produced in CEM-SS cells. A pre-titered aliquot of virus was removed from the freezer (−80° C.) and allowed to thaw slowly to room temperature in a biological safety cabinet. Virus was resuspended and diluted into tissue culture medium such that the amount of virus added to each well in a volume of 50 μL was the amount determined to yield 85 to 95% cell killing at 6 days post-infection.
Each plate contains cell control wells (cells only), virus control wells (cells plus virus), compound toxicity wells (cells plus compound only), compound colorimetric control wells (compound only) as well as experimental wells (compound plus cells plus virus). Samples were tested in triplicate with eleven half-log dilutions per compound starting at 0.1 μM of compound. Compounds 104, 120 and 122 were tested, as was atazanavir and AZT. […]
Following incubation at 37° C. in a 5% CO2 incubator, the test plates were stained with the tetrazolium dye XTT (2,3-bis(2-methoxy-4-nitro-5sulfophenyl)-5-[(phenylamino)carbonyl]-2H-tetrazolium hydroxide). XTT-tetrazolium was metabolized by the mitochondrial enzymes of metabolically active cells to a soluble formazan product, allowing rapid quantitative analysis of the inhibition of HIV induced cell killing by anti-HIV test substances. XTT solution was prepared daily as a stock of 1 mg/mL in RPMI 1640. Phenazine methosulfate (PMS) solution was prepared at 0.15 mg/mL in PBS and stored in the dark at −20° C. XTT/PMS stock was prepared immediately before use by adding 40 μL of PMS per mL of XTT solution. Fifty microliters of XTT/PMS was added to each well of the plate and the plate was reincubated for 4 hours at 37° C. Plates were sealed with adhesive plate sealers and shaken gently or inverted several times to mix the soluble formazan product and the plate was read spectrophotometrically at 450/650 nm with a Molecular Devices Vmax plate reader.
Raw data was collected from the Softmax Pro 4.6 software and imported into a Microsoft Excel 2003 spreadsheet for analysis by linear curve fit calculations.

[3] = human, pH 7.4, human liver microsomes, repeated assay (Table 3), read-out: t1/2 (min) Avg ± SD (n = 3)
[4] = No Serum Protein Added (cell culture medium)
[5] = human, pH 7.4, human liver microsomes 0.5 mg/mL, 1.0 μM test compound, first run (Table 2), read-out: T1/2 ± SD

Q: Which half-life at 1 μM [1, 3] does the source give for `[2H]C([2H])([2H])OC(=O)N[C@H](C(=O)N[C@@H](Cc1ccccc1)[C@@H](O)CN(NC(=O)[C@@H](NC(=O)OC([2H])([2H])[2H])C(C([2H])([2H])[2H])(C([2H])([2H])[2H])C([2H])([2H])[2H])C([2H])([2H])c1ccc(-c2ccccn2)cc1)C(C([2H])([2H])[2H])(C([2H])([2H])[2H])C([2H])([2H])[2H]` [Compound 131, 1,14-Di(methyl-d3)(3S,8S,9S,12S)-3,12-bis[(1,1-dimethylethyl)-d9]-8-hydroxy-4,11-dioxo-9-(phenylmethyl)-6-[[4-(2-pyridinyl)phenyl]methyl-d2]-2,5,6,10,13-pentaazatetradecanedioate] here?
A: Its half-life at 1 μM is 30.9 ± 1.4 min.

Q: Which half-life at 1 μM [1, 3] does the source give for `[2H]C([2H])([2H])OC(=O)N[C@H](C(=O)N[C@@H](Cc1ccccc1)[C@@H](O)CN(NC(=O)[C@@H](NC(=O)OC)C(C)(C)C)C([2H])([2H])c1ccc(-c2ccccn2)cc1)C(C([2H])([2H])[2H])(C([2H])([2H])[2H])C([2H])([2H])[2H]` [Compound 123, 1-Methyl-14-(methyl-d3)(3S,8S,9S,12S)-3-(1,1-dimethylethyl)-12-[(1,1-dimethylethyl)-d9]-8-hydroxy-4,11-dioxo-9-(phenylmethyl)-6-[[4-(2-pyridinyl)phenyl]methyl-2]-2,5,6,10,13-pentaazatetradecanedioate] here?
A: The half-life at 1 μM was 23.9 ± 0.8 min.

Q: With `Cc1cn([C@H]2C[C@H](N=[N+]=[N-])[C@@H](CO)O2)c(=O)[nH]c1=O` [AZT, reference compound] as the compound, how does the EC50 ([2]; +0.5 mg/mL AAGP) read?
A: The EC50 was 1 nM.

Q: What about the EC50 ([2]; +10 mg/mL HAS) of the same compound?
A: The EC50 was 2 nM.

Q: What about the EC50 ([2]; +AAGP + HSA) of the same compound?
A: Its EC50 is 2 nM.

Q: What about the EC50 [2, 4] of the same compound?
A: Its EC50 is 2 nM.

Q: Which half-life at 1 μM [1, 3] does the source give for `[2H]C([2H])(c1ccc(-c2ccccn2)cc1)N(C[C@H](O)[C@H](Cc1ccccc1)NC(=O)[C@@H](NC(=O)OC)C(C([2H])([2H])[2H])(C([2H])([2H])[2H])C([2H])([2H])[2H])NC(=O)[C@@H](NC(=O)OC)C(C)(C)C` [Compound 111, 1,14-Dimethyl(3S,8S,9S,12S)-3-(1,1-dimethylethyl)-12-[(1,1-dimethylethyl)-d9]-8-hydroxy-4,11-dioxo-9-(phenylmethyl)-6-[[4-(2-pyridinyl)phenyl]methyl-d2]2,5,6,10,13-pentaazatetradecanedioate] here?
A: The half-life at 1 μM was 23.9 ± 0.3 min.

Q: Which “half-life as compared to atazanavir” value [1] does the source give for `[2H]C([2H])([2H])C([C@H](NC(=O)OC)C(=O)N[C@@H](Cc1ccccc1)[C@@H](O)CN(Cc1ccc(-c2ccccn2)cc1)NC(=O)[C@@H](NC(=O)OC)C(C([2H])([2H])[2H])(C([2H])([2H])[2H])C([2H])([2H])[2H])(C([2H])([2H])[2H])C([2H])([2H])[2H]` [Compound 106, 1,14-Dimethyl(3S,8S,9S,12S)-3,12-bis[(1,1-dimethylethyl)-d9]-8-hydroxy-4,11-dioxo-9-(phenylmethyl)-6-[[4-(2-pyridinyl)phenyl]methyl]-2,5,6,10,13-pentaazatetradecanedioate] here?
A: The value was “increased half-life”.

Q: And the “increase in half-life as compared to atazanavir” value ([1]; human, 1 μM, pH 7.4)?
A: The value was “approximately 40%”.

Q: And the half-life at 1 μM [1, 5]?
A: Its half-life at 1 μM is 26.1 ± 0.99 min.

Q: And the half-life at 1 μM [1, 3]?
A: Its half-life at 1 μM is 25.6 ± 0.6 min.

Q: With `[2H]C([2H])([2H])OC(=O)N[C@H](C(=O)N[C@@H](Cc1ccccc1)[C@@H](O)CN(Cc1ccc(-c2ccccn2)cc1)NC(=O)[C@@H](NC(=O)OC([2H])([2H])[2H])C(C([2H])([2H])[2H])(C([2H])([2H])[2H])C([2H])([2H])[2H])C(C)(C)C` [Compound 121, 1,14-Di(methyl-d3)(3S,8S,9S,12S)-3-[(1,1-dimethylethyl)-d9]-12-(1,1-dimethylethyl)-8-hydroxy-4,11-dioxo-9-(phenylmethyl)-6-[[4-(2-pyridinyl)phenyl]methyl]-2,5,6,10,13-pentaazatetradecanedioate] as the compound, how does the half-life at 1 μM [1, 3] read?
A: Its half-life at 1 μM is 18.8 ± 1.5 min.

Q: Which results are given for `[2H]C([2H])([2H])OC(=O)N[C@H](C(=O)N[C@@H](Cc1ccccc1)[C@@H](O)CN(Cc1ccc(-c2ccccn2)cc1)NC(=O)[C@@H](NC(=O)OC([2H])([2H])[2H])C(C)(C)C)C(C)(C)C` [Compound 103, 1,14-Di(methyl-d3)(3S,8S,9S,12S)-3,12-bis(1,1-dimethylethyl)-8-hydroxy-4,11-dioxo-9-(phenylmethyl)-6-[[4-(2-pyridinyl)phenyl]methyl]-2,5,6,10,13-pentaazatetradecanedioate]?
A: half-life as compared to atazanavir [1]: increased half-life; % change in t1/2 ([1]; human, 1 μM, pH 7.4): −9%; half-life at 1 μM [1, 5]: 20.2 ± 4.22 min; half-life at 1 μM [1, 3]: 17.2 ± 0.9 min

Q: With “1,14-Dimethyl(3S,8S,9S,12S)-3-(1,1-dimethylethyl)-12-[(1,1-dimethylethyl)-d9]-8-hydroxy-4,11-dioxo-9-(phenylmethyl)-6-[[4-(2-pyridinyl)phenyl]methyl]-2,5,6,10,13-pentaazatetradecanedioate [Compound 104]” as the compound, how does the “t1/2 (min) Avg ± SD (n = 3)” value ([1]; human, microsomes) read?
A: Its value is 23.3 ± 0.4 min.

Q: What about the “fold increase of EC50 in the presence of AAGP” value ([2]; 0.5 mg/mL AAGP versus cell culture medium) of the same compound?
A: The value was “greater than 7 fold”.

Q: What about the “fold less potent in the presence of HSA than in cell culture medium alone” value ([2]; 10 mg/mL HSA versus cell culture medium) of the same compound?
A: Its value is “two- to greater than three-fold less potent”.

Q: And the EC50 ([2]; +0.5 mg/mL AAGP)?
A: The EC50 was 2 nM.

Q: And the EC50 ([2]; +10 mg/mL HAS)?
A: Its EC50 is 0.9 nM.

Q: And the EC50 ([2]; +AAGP + HSA)?
A: The EC50 was 4 nM.

Q: What about the “fold decrease of antiviral activity in the presence of AAGP plus HSA” value ([2]; AAGP plus HSA versus cell culture medium) of the same compound?
A: Its value is “greater than 13 fold”.

Q: What about the EC50 [2, 4] of the same compound?
A: Its EC50 is under 0.3 nM.
